Earlier results in patent US20200323770A1, “WOUND DEBRIDEMENT COMPOSITION AND METHOD FOR TREATING WOUNDS” (Hollister Incorporated, priority 2017, published 2020).

Details: in vitro; increasing papain concentrations 200-1,600 USP units/mg in 10% urea

papain
increased: collagenolysis | elastinolysis | fibrinolysis
